Experimental data reported in publication PMC2626591, “Phage display-derived inhibitor of the essential cell wall biosynthesis enzyme MurF” (BMC Biochemistry, 2008).
Ends that are not written are not given here.

Columns and labels:
P. aeruginosa MurF [1] = molecular target: T1, P. aeruginosa MurF (Pseudomonas aeruginosa, UniProt Q9EY48); assay: MurF kinetics with respect to D-Ala-D-Ala, spectrophotometric (Lanzetta reagent) ATPase assay; format: biochemical
T1 construct: made in house
Procedure: (§1) The ATPase activity of P. aeruginosa MurF was quantified by a colorimetric assay that measures the release of nanomoles of inorganic phosphate using the Lanzetta reagent. The reaction mixture (100 μl), held at room temperature, contained 40 nM of purified MurF from a fresh aliquot, 1 mM ATP, 100 μM UDP-MurNAc-Ala-Glu-meso-A2pm and 5 mM D-Ala-D-Ala in buffer C (100 mM Tris-HCl pH 8.6, 40 mM KCl, 500 mM NaCl, 1 mg/ml bovine serum albumin and 10 mM MgCl2). Reaction time was 15 min before adding 800 μl of the Lanzetta reagent. After an additional 5 min for colour development, 100 μl of 34% (w/v) sodium citrate was added to stop the reaction. The optical density at 660 nm was immediately measured with a Cary spectrophotometer (Varian, Mississauga, Ontario, Canada). The amount of inorganic phosphate released by MurF was determined by comparison to the linear portion of a phosphate standard curve with a minimum R^2 value of 0.99. The phosphate content of each component in the reaction was subtracted from the total phosphate measured, negative controls were done without enzyme or substrate, and assays were done in triplicate. Different concentrations of each substrate and NaCl were tested to determine optimal conditions for the study of the activity of MurFp1.
The maximal specific activity, the catalytic constant (kcat), the Michaelis-Menten constant (Km) and the enzyme efficiency (kcat/Km) were determined for MurF with respect to D-Ala-D-Ala. Kinetic parameters were determined by nonlinear regression analysis with a square matrix of enzyme velocities following the Michaelis-Menten equations using the Enzyme Kinetics Module version 1 of SigmaPlot version 8.

P. aeruginosa MurF [2] = molecular target: T1, P. aeruginosa MurF; assay: MurF inhibition by MurFp1, spectrophotometric (Lanzetta reagent) ATPase assay; format: biochemical
Procedure: as §1
MurFp1 was synthesized and purified as previously described. Peptide purity (> 95%) was analyzed by HPLC and molecular mass (1424.68 daltons) was confirmed by MALDI-TOF mass spectroscopy. […]
Inhibition of MurF enzymatic activity by MurFp1 was measured by the spectrophotometric assay described above. […] The effect of non-specific peptides was analysed on MurF enzymatic activity, with and without UDP-MurNAc-Ala-Glu-A2pm in the pre-incubation step. […]
Kinetic data were fitted to the appropriate model equations using the Sigmaplot Enzyme Kinetics Module. Steady-state inhibition kinetic parameters were determined by nonlinear regression analysis using the least squares method as a reference to ensure accurate dataset fitting and to generate error estimates for each individual observation. […]

MurF = conditions: 12-mer phage library, elution with glycine-HCl, 1 mM ATP or 1 mM D-Ala-D-Ala; ten phages sequenced per elution condition; in words
Procedure: Phage display screening was performed with the PH.D.-12 phage library (New England Biolabs, Mississauga, Ontario, Canada). […] Phages encoding selected peptides were eluted at the end of the third round using 100 μl of 0.2 M glycine-HCl (pH 2.2) [17], and 100 μl of 1 mM ATP or 1 mM D-Ala-D-Ala for 30 min. The DNA of ten phages was prepared and sequenced with a -96 gIII primer (New England Biolabs) for each elution condition [23].

T1 sequence (Q9EY48 entry or part of it): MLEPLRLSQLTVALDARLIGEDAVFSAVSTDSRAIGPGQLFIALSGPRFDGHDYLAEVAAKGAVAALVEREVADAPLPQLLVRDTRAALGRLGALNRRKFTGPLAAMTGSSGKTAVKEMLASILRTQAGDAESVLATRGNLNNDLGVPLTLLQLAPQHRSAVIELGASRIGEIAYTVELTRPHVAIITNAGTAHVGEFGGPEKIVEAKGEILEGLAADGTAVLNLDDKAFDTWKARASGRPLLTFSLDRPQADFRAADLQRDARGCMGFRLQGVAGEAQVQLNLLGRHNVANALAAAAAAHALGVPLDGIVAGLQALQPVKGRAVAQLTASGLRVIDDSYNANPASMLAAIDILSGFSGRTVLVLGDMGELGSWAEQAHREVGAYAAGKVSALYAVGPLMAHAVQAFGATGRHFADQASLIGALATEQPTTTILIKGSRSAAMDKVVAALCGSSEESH

D-Alanyl-D-Alanine [D-Ala-D-Ala]
Km (P. aeruginosa MurF [1]; MurF, with respect to D-Ala-D-Ala, pH 8.6, room temperature): 115 ± 10 µM
ligations of D-Ala-D-Ala per MurF active site (kcat) (P. aeruginosa MurF [1]; ligation to UDP-MurNAc-Ala-Glu-meso-A2pm, from kcat): about 100 per min
kcat/Km (P. aeruginosa MurF [1]; with respect to D-Ala-D-Ala, pH 8.6, room temperature): 14200 ± 2500 M⁻¹ s⁻¹

TMGFTAPRFPHY [MurFp1]
inhibition at 2000 µM (P. aeruginosa MurF [2]; 2 mM MurFp1, 30-minute pre-incubation of MurF with MurFp1, no substrate in pre-incubation): 50%
IC50 (P. aeruginosa MurF [2]; 30 min pre-incubation with MurF, MurFp1 and UDP-MurNAc-Ala-Glu-meso-A2pm, 40 nM MurF, pH 8.6, room temperature, 15 min reaction, OD 660 nm, assays in triplicate): 250 ± 10 µM
effect on Km for D-Ala-D-Ala (P. aeruginosa MurF [2]; each MurFp1 concentration used, 30 min pre-incubation with UDP-MurNAc-Ala-Glu-A2pm, in words): remained almost the same

VSANRHLGGNLP
recovery in third round of bio-panning (MurF): recovered once by both the ATP and D-Ala-D-Ala elutions
